Data taken from ChEMBL document CHEMBL1201862, “PubChem BioAssay data set” (2004).
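Following 48 hours of exposure in 96-well plates, responses at five concentrations were used to interpolate endpoints linearly. Abbreviation: GI50, concentration required for 50% inhibition of growth.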 Calls of active or inactive are those of the source. Rule as the data show it: active = GI50 up to about 1.1 µM and inactive = higher.

What was measured:
Test in all cases: DTP human tumour cell line panel, 48 h
M14 = test system: M14
SF-539 = test system: SF-539
MCF7 = test system: MCF7
Malme-3M = test system: Malme-3M
OVCAR-4 = test system: OVCAR-4
NCI/ADR-RES = test system: NCI/ADR-RES
TK-10 = test system: TK-10
SN12C = test system: SN12C
RPMI-8226 = test system: RPMI-8226
PC-3 = test system: PC-3
LOX IMVI = test system: LOX IMVI
RXF 393 = test system: RXF 393
A498 = test system: A498
DU-145 = test system: DU-145
OVCAR-5 = test system: OVCAR-5
NCI-H522 = test system: NCI-H522
SK-OV-3 = test system: SK-OV-3
HOP-62 = test system: HOP-62
HT-29 = test system: HT-29
EKVX = test system: EKVX
UACC-62 = test system: UACC-62
CCRF-CEM = test system: CCRF-CEM
SNB-75 = test system: SNB-75
U-251 = test system: U-251
MDA-MB-231 = test system: MDA-MB-231
K562 = test system: K562
OVCAR-3 = test system: OVCAR-3
SK-MEL-5 = test system: SK-MEL-5
SNB-19 = test system: SNB-19
SW-620 = test system: SW-620
MOLT-4 = test system: MOLT-4
Hs-578T = test system: Hs-578T
SF-268 = test system: SF-268
CAKI-1 = test system: CAKI-1
SK-MEL-2 = test system: SK-MEL-2
T47D = test system: T47D
SF-295 = test system: SF-295
SR = test system: SR
IGROV-1 = test system: IGROV-1
UACC-257 = test system: UACC-257
786-0 = test system: 786-0
COLO 205 = test system: COLO 205
HCT-116 = test system: HCT-116
NCI-H226 = test system: NCI-H226
UO-31 = test system: UO-31
A549 = test system: A549
HOP-92 = test system: HOP-92
MDA-MB-435 = test system: MDA-MB-435
KM12 = test system: KM12
NCI-H23 = test system: NCI-H23
NCI-H460 = test system: NCI-H460
MDA-N = test system: MDA-N
HL-60 = test system: HL-60
SK-MEL-28 = test system: SK-MEL-28
HCT-15 = test system: HCT-15
OVCAR-8 = test system: OVCAR-8
HCC 2998 = test system: HCC 2998
ACHN = test system: ACHN

Nc1ccccc1C#CC(=O)c1cccc(C(F)(F)F)c1
GI50 (M14): 2.22 µM (inactive)
GI50 (SF-539): 3.18 µM (inactive)
GI50 (MCF7): 2.89 µM (inactive)
GI50 (Malme-3M): 6.1 µM (inactive)
GI50 (OVCAR-4): 2.22 µM (inactive)
GI50 (NCI/ADR-RES): 4.89 µM (inactive)
GI50 (TK-10): 17.2 µM (inactive)
GI50 (SN12C): 2.06 µM (inactive)
GI50 (RPMI-8226): 2.3 µM (inactive)
GI50 (PC-3): 3.41 µM (inactive)
GI50 (LOX IMVI): 1.46 µM (inactive)
GI50 (RXF 393): 2.25 µM (inactive)
GI50 (A498): 18.5 µM (inactive)
GI50 (DU-145): 3.24 µM (inactive)
GI50 (OVCAR-5): 6.59 µM (inactive)
GI50 (NCI-H522): 1.09 µM (active)
GI50 (SK-OV-3): 15.3 µM (inactive)
GI50 (HOP-62): 7.24 µM (inactive)
GI50 (HT-29): 4.16 µM (inactive)
GI50 (EKVX): 16.3 µM (inactive)
GI50 (UACC-62): 1.86 µM (inactive)
GI50 (CCRF-CEM): 0.867 µM (active)
GI50 (SNB-75): 14.1 µM (inactive)
GI50 (U-251): 1.95 µM (inactive)
GI50 (MDA-MB-231): 1.95 µM (inactive)
GI50 (K562): 3.01 µM (inactive)
GI50 (OVCAR-3): 3.78 µM (inactive)
GI50 (SK-MEL-5): 2.35 µM (inactive)
GI50 (SNB-19): 14.5 µM (inactive)
GI50 (SW-620): 2.21 µM (inactive)
GI50 (MOLT-4): 2.55 µM (inactive)
GI50 (Hs-578T): 2.56 µM (inactive)
GI50 (SF-268): 2.2 µM (inactive)
GI50 (CAKI-1): 3.21 µM (inactive)
GI50 (SK-MEL-2): 1.18 µM (inactive)
GI50 (T47D): 4.03 µM (inactive)
GI50 (SF-295): 15.7 µM (inactive)
GI50 (SR): 2.27 µM (inactive)
GI50 (IGROV-1): 0.258 µM (active)
GI50 (UACC-257): 15.7 µM (inactive)
GI50 (786-0): 2.1 µM (inactive)
GI50 (COLO 205): 1.89 µM (inactive)
GI50 (HCT-116): 2.66 µM (inactive)
GI50 (NCI-H226): 3.58 µM (inactive)
GI50 (UO-31): 1.29 µM (inactive)
GI50 (A549): 16.8 µM (inactive)
GI50 (HOP-92): 1.99 µM (inactive)
GI50 (MDA-MB-435): 2.52 µM (inactive)
GI50 (KM12): 13.9 µM (inactive)
GI50 (NCI-H23): 1.97 µM (inactive)
GI50 (NCI-H460): 19.3 µM (inactive)
GI50 (MDA-N): 3.1 µM (inactive)
GI50 (HL-60): 6.07 µM (inactive)

S=C(/C=C1\SC(=N\c2ccccc2)/C(=N/c2ccccc2)N1c1ccccc1)Nc1ccccc1
GI50 (M14): > 100 µM (inactive)
GI50 (Malme-3M): > 100 µM (inactive)
GI50 (NCI/ADR-RES): > 100 µM (inactive)
GI50 (SN12C): > 100 µM (inactive)
GI50 (RPMI-8226): > 100 µM (inactive)
GI50 (PC-3): > 100 µM (inactive)
GI50 (A498): > 100 µM (inactive)
GI50 (DU-145): > 100 µM (inactive)
GI50 (SK-MEL-28): > 100 µM (inactive)
GI50 (NCI-H522): > 100 µM (inactive)
GI50 (SK-OV-3): 67.3 µM (inactive)
GI50 (HOP-62): > 100 µM (inactive)
GI50 (HCT-15): > 100 µM
GI50 (HT-29): > 100 µM (inactive)
GI50 (UACC-62): 51.6 µM (inactive)
GI50 (CCRF-CEM): 3.66 µM (inactive)
GI50 (SNB-75): > 100 µM (inactive)
GI50 (U-251): > 100 µM (inactive)
GI50 (MDA-MB-231): > 100 µM (inactive)
GI50 (OVCAR-3): > 100 µM (inactive)
GI50 (SK-MEL-5): > 100 µM (inactive)
GI50 (MOLT-4): 15.2 µM (inactive)
GI50 (Hs-578T): > 100 µM (inactive)
GI50 (CAKI-1): > 100 µM (inactive)
GI50 (SK-MEL-2): > 100 µM (inactive)
GI50 (T47D): > 100 µM (inactive)
GI50 (SF-295): > 100 µM (inactive)
GI50 (SR): > 100 µM (inactive)
GI50 (IGROV-1): > 100 µM (inactive)
GI50 (COLO 205): > 100 µM (inactive)
GI50 (HCT-116): > 100 µM (inactive)
GI50 (OVCAR-8): > 100 µM (inactive)
GI50 (HOP-92): > 100 µM (inactive)
GI50 (MDA-MB-435): > 100 µM (inactive)
GI50 (KM12): > 100 µM (inactive)
GI50 (NCI-H23): > 100 µM (inactive)
GI50 (NCI-H460): > 100 µM (inactive)
GI50 (MDA-N): > 100 µM (inactive)
GI50 (HL-60): > 100 µM (inactive)

CC(C)(C)C1=C(Br)C(C(C)(C)C)OP1(=O)O (stereo not drawn)
GI50 (M14): > 100 µM (inactive)
GI50 (SF-539): > 100 µM (inactive)
GI50 (MCF7): > 100 µM (inactive)
GI50 (Malme-3M): > 100 µM (inactive)
GI50 (OVCAR-4): > 100 µM (inactive)
GI50 (NCI/ADR-RES): > 100 µM (inactive)
GI50 (TK-10): > 100 µM (inactive)
GI50 (SN12C): > 100 µM (inactive)
GI50 (PC-3): > 100 µM (inactive)
GI50 (LOX IMVI): > 100 µM (inactive)
GI50 (HCC 2998): > 100 µM (inactive)
GI50 (A498): > 100 µM (inactive)
GI50 (DU-145): > 100 µM (inactive)
GI50 (OVCAR-5): > 100 µM (inactive)
GI50 (SK-MEL-28): > 100 µM (inactive)
GI50 (NCI-H522): > 100 µM (inactive)
GI50 (SK-OV-3): > 100 µM (inactive)
GI50 (HOP-62): > 100 µM (inactive)
GI50 (HCT-15): > 100 µM
GI50 (HT-29): > 100 µM (inactive)
GI50 (EKVX): > 100 µM (inactive)
GI50 (UACC-62): > 100 µM (inactive)
GI50 (SNB-75): > 100 µM (inactive)
GI50 (U-251): > 100 µM (inactive)
GI50 (K562): > 100 µM (inactive)
GI50 (OVCAR-3): > 100 µM (inactive)
GI50 (SK-MEL-5): > 100 µM (inactive)
GI50 (SNB-19): > 100 µM (inactive)
GI50 (ACHN): > 100 µM (inactive)
GI50 (Hs-578T): > 100 µM (inactive)
GI50 (SF-268): > 100 µM (inactive)
GI50 (CAKI-1): > 100 µM (inactive)
GI50 (SK-MEL-2): > 100 µM (inactive)
GI50 (T47D): > 100 µM (inactive)
GI50 (SF-295): > 100 µM (inactive)
GI50 (IGROV-1): > 100 µM (inactive)
GI50 (UACC-257): > 100 µM (inactive)
GI50 (786-0): > 100 µM (inactive)
GI50 (COLO 205): > 100 µM (inactive)
GI50 (HCT-116): > 100 µM (inactive)
GI50 (NCI-H226): > 100 µM (inactive)
GI50 (OVCAR-8): > 100 µM (inactive)
GI50 (UO-31): > 100 µM (inactive)
GI50 (A549): > 100 µM (inactive)
GI50 (HOP-92): > 100 µM (inactive)
GI50 (MDA-MB-435): > 100 µM (inactive)
GI50 (KM12): > 100 µM (inactive)
GI50 (NCI-H23): > 100 µM (inactive)
GI50 (NCI-H460): > 100 µM (inactive)
GI50 (MDA-N): > 100 µM (inactive)
GI50 (HL-60): > 100 µM (inactive)
